Data from patent US10791989B2, “Magnetic resonance imaging of poly-L-glutamate” (The Trustees of The University of Pennsylvania, priority 2013, dated 2020).

Assays:
cathepsin B [1] = biological target: T1, cathepsin B (Homo sapiens, UniProt P07858); assay: CEST imaging of phantoms (glutamate, PLG, PLG+cathepsin B) on 7T whole-body scanner; type: biochemical; conditions: phantom, room temperature; for CEST contrast at 3 ppm: substance alone
Description: (§1) Both the CEST imaging and MRS were performed.

cathepsin B [2] = biological target: T1, cathepsin B; assay: Proton MRS of phantoms (PLG+cathepsin B) on 7T whole-body scanner; type: biochemical; conditions: phantom with PLG and cathepsin B
Description: as §1

F98 tumor cells = conditions: after addition of PLG vs without PLG, 9.4 T
Description: as §1
F98 cell line is known to be aggressive and expresses cathepsin B and other proteases.

Compound	CEST contrast at 3 ppm (cathepsin B [1])	CEST contrast at 3 ppm after addition of cathepsin B (cathepsin B [1]; PLG with cathepsin B)	MR spectrum change with cathepsin B (cathepsin B [2])	increase in CEST contrast at 3 ppm (F98 tumor cells)
N[C@@H](CCC(=O)O)C(=O)O [Glu, glutamate]	strong CEST contrast	–	–	–
Poly(L-glutamic acid) [PLG]	No CEST contrast	appreciable CEST contrast	cleavage of 2.3 and 4.1 ppm peaks	−16%
